Reference: patent publication US4542153A, “Methods for changing calcium metabolism within the cells of a mammal” (The Ohio State University Research Foundation, priority 1983, dated 1985)

What was measured:
[1] = system: chloroform anoxia arrhythmia in mice; assay: Chloroform Anoxia Assay (chloroform-induced ventricular fibrillation); format: in vivo, Female Swiss albino mice; details: for ED50: i.p., 10 min before chloroform, table: mean values and 95% confidence limits, 10 min
Method: The same four compounds were tested for their ability to protect mice from chloroform anoxia by the classical chloroform inhalation procedure described in Lawson J. W.: Antiarrhythmic activity of some isoquinoline derivatives determined by a rapid screening procedure in the mouse, J. Pharmacol. Exp. Ther. 160: 22-31, (1968). In this method, chloroform inhalation leading to respiratory arrest produces ventricular fibrillation. Female Swiss albino mice procured from Laboratory Supply Company, Indianapolis, Indiana, weighing 16-22 g, were pretreated intraperitoneally with the compound under test dissolved in a 5% dextrose solution 10 minutes before exposure to chloroform in a closed container containing chloroform-saturated cotton. The mice were removed from the chloroform atmosphere immediately after respiratory arrest and the electrocardiograph lead II monitored. The ED 50 and 95% confidence limits calculated for the anti-arrhythmic agents by the standard method of Litchfield and Wilcoxon.

[2] = tested acutely and subchronically; earlier published work; cited from earlier work
[3] = system: thoracic aorta strips contracted with norepinephrine; assay: Vasodilator activity: norepinephrine-contracted aortic strips; format: cell-based, male Sprague-Dawley rats
Text: (§1) Pr-MDI, bu-MDI, Q-bu-MDI and the compounds of Formulae IIIA, IIIB and IVA having the two R1 groups together forming a methylene group, each R3 a methyl group and R2 an n-propyl group or n-butyl group (the compounds of Formula III are hereinafter abbreviated as sat-pr-MDI and sat-bu-MDI respectively, reference being made where necessary to the cis isomer of Formula III A or the trans isomer of Formula III B while the compounds of Formula IV are similarly referred to as cis sat-Q-pr-MDI and cis sat-Q-bu-MDI) were tested for vasodilator activity by the method of R. F. Furchgott and S. Bhadrakom, J. P. Pharmacol. Ex. Ther., 108, 129-143 (1953).
(§2) The vasodilator activity tests were conducted on male Sprague-Dawley rats, obtained from Harlan Industries, Inc., Cumberland, Indiana. The rats, weight 250-300 g., were sacrified by cervical dislocation and a 2.5 cm. segment of the thoracic aorta was removed and rinshed in physiological buffer. Each aortic segment was cleaned of connective tissue and cut spirally two yield to strips, each 3 by 15 mm. Each strip was mounted isometrically under a tension of 1 g in a 10 ml. tissue bath thermostatically maintained at 37° C. and containing a normal physiological solution aerated with a 95% oxygen/5% carbon dioxide mixture. Forces generated by the strip were monitored using a Grass FT03 isometric transducer coupled to a Grass module 7D polygraph recorder, both the transducer and the recorder being obtained from Grass Instrument Co., of Quincy, Mass.
(§3) After the aortic tissue had been allowed to equilibriate for 1-1.5 hours in the normal physiologic solution, tissue contraction was induced by introducing either 10^-7 M norepinephrine or 40mM potassium chloride buffer to the tissue bath.
(§4) To avoid interference by loss of tension due to time dependent tissue fatigue, separate preliminary experiments were performed to determine the degree of tissue relaxation due to such fatigue and the value of the control tension generated by norepinephrine or potassium chloride prior to the addition of the test compounds was adjusted whenever the duration of the experiment was such that fatigue could be expected to cause more than a 6% loss of tension. […] All concentrations mentioned hereinafter represent the final concentration of the test compound after dilution in the tissue bath.
(§5) The figures of concentration against percent response data obtained from each aortic tissue were transformed to its appropriate probit value and IC50 values were then estimated using linear regression analysis. The normal physiological solution contained 6.9 g/l of sodium chloride, 0.35 g/l of potassium chloride, 0.11 g/l of magnesium chloride hexahydrate, 0.138 g/l of sodium dihydrogen phosphate, 2.1 g/l of sodium bicarbonate, 0.01 g/l of EDTA, 0.368 g/l of calcium chloride dihydrate and 2.0 g/l of dextrose. The high potassium buffers were obtained by substituting potassium chloride for sodium chloride on an equimolar basis to maintain tonicity.

[4] = system: thoracic aorta strips contracted with potassium chloride; assay: Vasodilator activity: potassium chloride-contracted aortic strips; format: cell-based, male Sprague-Dawley rats; details: rat aorta contracted with 40 mM potassium chloride; read-out: IC50 (mean and range of SEM) KCl
Text: as §1, §2, §3, §4, §5

isolated left atria = assay: Effects on isolated guinea pig atria: electrically driven left atria; format: cell-based
Text: (§6) The effects of pr-MDI, bu-MDI and Q-bu-MDI on the mechanical and electrical behavior of isolated guinea pig atria were investigated by the method of H. Nawrath, J. Pharmacol. Exp. Ther., 16, 176-182 (1980). The compounds were investigated over the concentration range of 10^-8 to 3×10^-4 M.
(§7) English short-haired guinea pigs, supplied by Carr Animal Supply, of Powell, Ohio, weighing 300-600 g. were killed by a blow on the head and both atria of the animal were quickly dissected out and suspended in a water-jacketed organ bath containing Krebs-Henseleit solution through which a 95% oxygen/5% carbon dioxide mixture was bubbled at 32° C. The solution contained 6.92 g/l of sodium chloride, 0.35 g/l of potassium chloride, 0.29 g/l of magnesium […] heptahydrate, 0.3 g/l of calcium chloride dihydrate, 0.16 g/l of potassium dihydrogen phosphate, 2.1 g/l of sodium bicarbonate and 2.1 g/l of dextrose. The contractile force generated by the isolated artria was recorded isometrically under a 500 mg. preload using a Narco Biosystems force transducer connected to a physiograph DMP-4B recorder, both the transducer and the recorder being obtained from E & M Instrument Co. of Houston, Texas.
The isolated left atria were electrically driven by square wave impulses of 3 milliseconds duration at a frequency of 3 Hz. and a voltage of twice the threshold voltage, delivered by a Grass S9 stimulator obtained from Grass Instrument Co., of Quincy, Massachusetts. Two platinum electrodes were used for the stimulation, the anode being in direct contact with the atrial tissue while the cathode had the form of a ring suspended 2.5 centimeters above the anode. Before redetermination of the threshold voltage and generation of a predrug (control) frequency-force profile over the range of 1-5 Hz., an equilibriation time of one hour was allowed. The system was then re-equilibriated at 3 Hz. and twice the threshold voltage as before, then one cumulative dose-response curve of contractile force for one test compound was obtained, followed immediately by redetermination of the threshold voltage and the generation of a post-drug frequency-force profile.
A paired Student's t-test was used to compare predrug and postdrug threshold voltages for each left atrial preparations as well as to compare developed tension at each frequency in the profile of each left atrial preparation. P values of less than 0.05 were considered statistically significant.

[5] = system: calcium-induced arrhythmias in rats; assay: Calcium-induced arrhythmias (CaCl2 injected i.v. into anesthetized rats)
Text: The experimental method used was that described in Lynch J. J., Rahwan R. G., Witiak D. T.: Effects of 2-substituted-3-dimethylamino-5,6-methylenedioxyindenes on calcium-inducedarrhythmias, J. Cardiovasc. Pharmacol. 3: 49-60 (1981). Male Sprague-Dawley rats weighing 180-250 grams were anesthetized with sodium pentobarbital and a cannula was inserted into the left jugular vein for drug administration. Electrocardiograph equipment was connected to the rat and the lead II was continuously monitored. The compound under test, dissolved in 5% dextrose solution, was administered into the jugular vein of anesthetized rats over a 40 second period. Ten minutes after this treatment, an acute dose of 1 ml/kg of a 10% CaCl2.2H2 O solution was injected into the jugular vein over a period of 10 seconds. The arrhythmias resulting from the calcium administration were graded according to the following criteria: (a) initial change in heart rate following calcium administration; (b) incidences of sinoatrial block, atrioventricular block, ectopic beats, and ventricular flutter and fibrillation; (c) time required for reversion to control ECG; and (d) incidence of mortality.

[6] = system: spontaneously beating right atria; assay: Effects on isolated guinea pig atria: spontaneously beating right atria; format: cell-based
Text: as §6, §7
Spontaneously beating right atria were tested in a similar manner.

mice = assay: Toxicity Tests (intraperitoneal LD50); format: in vivo; details: i.p., table: mean values and 95% confidence limits

SMILES: CCCCC1=Cc2cc3c(cc2C1N(C)C)OCO3.Cl (centres unmarked) [bu-MDI, 2-butyl-5-6methylenedioxyindene-1-dimethylammonium hydrochloride, reference compound]
- Therapeutic Index (LD50/ED50) ([1]; ED50 from chloroform anoxia, LD50 i.p.): 4.2
- potency against chloroform/anoxia-induced arrhythmia versus quinidine ([1]; earlier work of applicants): more potent than quinidine
- ED50 ([1]; n = 40, hydrochloride): 44 mg/kg
- ED50 ([1]; n = 40, listed as Bu--MDI, hydrochloride): 44.0 mg/kg
- Antiarrhythmic Potency ([1]; quinidine = 1.00, chloroform anoxia): 1.52
- toxicity [2]: remarkable lack of toxicity
- relaxation of the aortic tissue ([3]; norepinephrine- or KCl-treated tissue): relaxed the aortic tissue
- comparative vasodilator activity, norepinephrine-treated tissue ([3]; norepinephrine-treated aortic tissue): considerably more active than Q-bu-MDI
- IC50 ([3]; rat aorta contracted with 10^-7 M norepinephrine, read-out: IC50 (mean and range of SEM) Norepinephrine): 74.1 µM
- IC50 [4]: 20.3 µM
- effect on frequency-force profile/relation of the stimulated left atrium (isolated left atria; 3×10^-4 M): significant depression of the frequency-force profile
- effect on threshold voltage required to drive the atria (isolated left atria; 3×10^-4 M): significantly decreased the threshold voltage
- effect on contractile force of the electrically stimulated left atrium (isolated left atria; 10^-8 to 3×10^-4 M): considerably greater than that of Q-bu-MDI
- potency and safety against calcium-induced arrhythmia versus verapamil ([5]; earlier work of applicants): more potent and safer then verapamil
- concentration effective against calcium-induced arrhythmias ([5]; i.v., 10 min before CaCl2): 3.75 mg/kg
- deleterious side effects ([5]; i.v., Q-bu-MDI at 0.5 mg/kg, pr-MDI and bu-MDI at 3.75 mg/kg): without deleterious side effects
- time to sustained peak effect, right atria, highest concentrations ([6]; 10^-4 M and 3×10^-4 M): 5 to 10 min
- effect on spontaneous atrial rate ([6]; 10^-8 to 3×10^-4 M): substantially identical to that of Q-bu-MDI
- effect on the contractile force of right atria ([6]; except at 3×10^-4 M for Q-bu-MDI): much greater negative inotropy
- LD50 (mice): 185 mg/kg
